Results on one compound are retold here after ChEMBL document CHEMBL4602703, “Lead Optimization of a Pyrrole-Based Dihydroorotate Dehydrogenase Inhibitor Series for the Treatment of Malaria” (J Med Chem, 2020).

Data set [1] is described as follows: Intrinsic clearance in human liver microsomes assessed as per mg protein. It is filed as ADME, Microsome. For orientation: Liver microsomes are a subcellular fraction often used to study metabolism.
Data set [2] can be described thus: Protein binding in human plasma by LC-MS analysis based ultracentrifugation assay. It is filed as ADME, cell-free. The note with it: read-out: PPB (converted).
The next data set concerns the target T1, Cytochrome P450 1A2 (Homo sapiens, UniProt P05177).
T1 sequence (P05177 whole entry): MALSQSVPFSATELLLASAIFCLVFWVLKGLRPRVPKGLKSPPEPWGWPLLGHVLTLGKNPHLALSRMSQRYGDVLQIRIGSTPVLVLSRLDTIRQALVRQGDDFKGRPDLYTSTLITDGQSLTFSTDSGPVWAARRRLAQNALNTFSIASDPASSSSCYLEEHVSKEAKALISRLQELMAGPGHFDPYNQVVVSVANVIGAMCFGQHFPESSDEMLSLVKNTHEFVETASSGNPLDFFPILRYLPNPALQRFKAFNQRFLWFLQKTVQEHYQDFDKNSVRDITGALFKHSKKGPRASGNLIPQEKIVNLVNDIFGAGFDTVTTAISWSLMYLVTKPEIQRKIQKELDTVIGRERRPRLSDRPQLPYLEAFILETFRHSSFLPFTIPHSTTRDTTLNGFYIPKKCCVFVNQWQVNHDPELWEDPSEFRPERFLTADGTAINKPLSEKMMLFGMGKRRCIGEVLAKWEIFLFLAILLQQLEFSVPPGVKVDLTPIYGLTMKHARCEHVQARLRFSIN
In words: Inhibition of CYP1A2 in human liver microsomes using phenacetin as substrate measured for 10 to 30 mins in presence of NADPH regenerating system by UPLC-MS analysis. It is filed as ADME.

The next data set addresses Cytochrome P450 2D6 (Homo sapiens, UniProt P10635). As to the kind of experiment: Inhibition of CYP2D6 in human liver microsomes using dextromethorphan as substrate measured for 10 to 30 mins in presence of NADPH regenerating system by UPLC-MS analysis. In kind it is ADME.
A short description of data set [3]: Cmax in Sprague-Dawley rat at 3 mg/kg, po administered via gavage measured up to 24 hrs by LC-MS analysis. In kind it is ADME, organism-based. Also on record: dose 3 mg/kg, route oral. To be noted: in vivo.
Data set [4] is described as follows: Cmax in Sprague-Dawley rat at 33 mg/kg, po administered via gavage measured up to 24 hrs by LC-MS analysis. It is filed as ADME, organism-based. Further details: dose 33 mg/kg, route oral. The note with it: in vivo.

In general, microsomal CLint refers to a measure of how fast metabolising enzymes remove a compound, apart from limits set by blood flow. By IC50 is commonly meant the concentration at which inhibition is half-maximal. Usually Cmax stands for the highest concentration seen after dosing.

Sequence of Cytochrome P450 2D6 (P10635 whole entry): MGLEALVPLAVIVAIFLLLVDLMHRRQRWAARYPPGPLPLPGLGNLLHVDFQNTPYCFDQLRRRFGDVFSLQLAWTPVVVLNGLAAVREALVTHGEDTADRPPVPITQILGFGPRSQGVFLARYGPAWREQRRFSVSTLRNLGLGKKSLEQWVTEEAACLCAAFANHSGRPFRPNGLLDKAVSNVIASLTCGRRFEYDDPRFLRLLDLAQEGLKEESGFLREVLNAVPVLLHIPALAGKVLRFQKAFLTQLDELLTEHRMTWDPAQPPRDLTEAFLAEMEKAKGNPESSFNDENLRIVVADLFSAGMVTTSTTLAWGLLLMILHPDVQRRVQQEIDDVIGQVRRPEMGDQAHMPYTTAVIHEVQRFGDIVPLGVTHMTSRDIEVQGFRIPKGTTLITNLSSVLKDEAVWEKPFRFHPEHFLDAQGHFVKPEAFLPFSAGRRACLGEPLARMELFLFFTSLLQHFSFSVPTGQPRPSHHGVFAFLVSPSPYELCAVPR

As for `Cc1c(Cc2ccc(C(F)(F)F)nc2)c[nH]c1C(=O)NC1CC1`, in data set [1], the intrinsic clearance (microsomal CLint) was 10 µL/min/mg. In data set [2], the fraction unbound was 0.1. For the same compound, the IC50 at Cytochrome P450 1A2 and at Cytochrome P450 2D6 was more than 20 µM in each case. Further, the maximum concentration (Cmax) turned out to be 1.7 µM in data set [3] and 27 µM in data set [4]. This compound returned a fEC50 with Plasmodium falciparum of 0.0077 µM.
